Experimental data reported in the supplement of paper PMC13380429.

Tests used:
[1] = test system: A549-ACE2 infected with SARS-CoV-2; test: cell count relative to DMSO; higher = less toxic; conditions: 24 h
Caco-2 [2] = test: cell viability relative to DMSO; higher = less toxic; conditions: 72 h
Calu-3 [3] = test: as above; conditions: 72 h
HepG2 [4] = test: as above; conditions: 72 h
U2OS [5] = test: as above; conditions: 72 h
Vero E6 [6] = test: as above; conditions: 72 h
[7] = test system: A549-ACE2 infected with SARS-CoV-2; test: SARS-CoV-2 infection rate relative to DMSO; higher = more infection; conditions: 24 h
A549-ACE2 [8] = test: phospholipidosis EC50; higher = less potent phospholipidosis inducer
A549-ACE2 [9] = test: drug-induced phospholipidosis relative to tamoxifen; higher = more phospholipidosis
[10] = test system: A549-ACE2 infected with SARS-CoV-2; test: morphology score (similarity to uninfected cells); higher = more like uninfected cells; conditions: 24 h
Caco-2 [11] = test: relative viability EC50 (midpoint between 100% and the lowest measured viability); higher = less toxic; conditions: 72 h
Calu-3 [12] = test: as above; conditions: 72 h
HepG2 [13] = test: as above; conditions: 72 h
Vero E6 [14] = test: as above; conditions: 72 h
Caco-2 [15] = test: drug sensitivity score (DSS) for viability; higher = more toxic; extreme values may be limits of the assay; conditions: 72 h
Calu-3 [16] = test: as above; conditions: 72 h
HepG2 [17] = test: as above; conditions: 72 h
U2OS [18] = test: as above; conditions: 72 h
Vero E6 [19] = test: as above; conditions: 72 h
U2OS [20] = test: relative viability EC50 (midpoint between 100% and the lowest measured viability); higher = less toxic; conditions: 72 h

COc1ccc(NC(=O)c2ccc(-c3ccc(-c4noc(C)n4)cc3C)cc2)cc1N1CCN(C)CC1
Conditions	SARS-CoV-2 infection rate [%]	cell count [%]	cell viability [%]	morphology score	phospholipidosis EC50 [µM]
A549-ACE2 [8], 24 h	–	–	–	–	0.719
A549-ACE2 [8], 48 h	–	–	–	–	0.984
A549-ACE2 [8], 72 h	–	–	–	–	1.27
Caco-2 [2], 1 nM	–	–	105	–	–
Caco-2 [2], 10 nM	–	–	92.5	–	–
Caco-2 [2], 100 nM	–	–	98.8	–	–
Caco-2 [2], 1000 nM	–	–	94.4	–	–
Caco-2 [2], 10000 nM	–	–	42.8	–	–
Calu-3 [3], 1 nM	–	–	110	–	–
Calu-3 [3], 10 nM	–	–	109	–	–
Calu-3 [3], 100 nM	–	–	99.2	–	–
Calu-3 [3], 1000 nM	–	–	102	–	–
Calu-3 [3], 10000 nM	–	–	7.9	–	–
HepG2 [4], 1 nM	–	–	97.5	–	–
HepG2 [4], 10 nM	–	–	109	–	–
HepG2 [4], 100 nM	–	–	98.9	–	–
HepG2 [4], 1000 nM	–	–	103	–	–
HepG2 [4], 10000 nM	–	–	19.1	–	–
U2OS [5], 1 nM	–	–	103	–	–
U2OS [5], 10 nM	–	–	102	–	–
U2OS [5], 100 nM	–	–	106	–	–
U2OS [5], 1000 nM	–	–	99.3	–	–
U2OS [5], 10000 nM	–	–	54.2	–	–
Vero E6 [6], 1 nM	–	–	106	–	–
Vero E6 [6], 10 nM	–	–	101	–	–
Vero E6 [6], 100 nM	–	–	105	–	–
Vero E6 [6], 1000 nM	–	–	96.6	–	–
Vero E6 [6], 10000 nM	–	–	31.6	–	–
[1], 0.1 µM	–	97	–	–	–
[1], 0.3 µM	–	104	–	–	–
[1], 1 µM	–	109	–	–	–
[1], 3 µM	–	117	–	–	–
[7], 0.1 µM	106	–	–	–	–
[7], 0.3 µM	99	–	–	–	–
[7], 1 µM	85	–	–	–	–
[7], 3 µM	31	–	–	–	–
[10], 0.1 µM	–	–	–	-0.16	–
[10], 0.3 µM	–	–	–	0.15	–
[10], 1 µM	–	–	–	0.46	–
[10], 3 µM	–	–	–	0.78	–

drug-induced phospholipidosis [%], A549-ACE2 [9]
Conditions	0.3 µM	0.833333 µM	3.33333 µM	6.66667 µM	10 µM	30 µM
24 h	2.12	35	61.8	56.7	35.2	28.3
48 h	4.59	17.3	79.1	76.8	56.3	–
72 h	4.03	12.8	79.8	80.8	–	–

Conditions	drug sensitivity score	relative viability EC50 [µM]
Caco-2 [11]	–	2.36
Caco-2 [15]	4	–
Calu-3 [12]	–	3.27
Calu-3 [16]	5	–
HepG2 [13]	–	3.38
HepG2 [17]	4.2	–
U2OS [18]	2.5	–
Vero E6 [14]	–	2.79
Vero E6 [19]	4.2	–

O=c1[nH]c2ccccc2n1C1CCN(CCCC(c2ccc(F)cc2)c2ccc(F)cc2)CC1 [pimozide]
Conditions	SARS-CoV-2 infection rate [%]	cell count [%]	cell viability [%]	morphology score	phospholipidosis EC50 [µM]
A549-ACE2 [8], 24 h	–	–	–	–	4.66
A549-ACE2 [8], 48 h	–	–	–	–	6.29
A549-ACE2 [8], 72 h	–	–	–	–	6.67
Caco-2 [2], 1 nM	–	–	92.2	–	–
Caco-2 [2], 10 nM	–	–	99.1	–	–
Caco-2 [2], 100 nM	–	–	98	–	–
Caco-2 [2], 1000 nM	–	–	94.6	–	–
Caco-2 [2], 10000 nM	–	–	95.7	–	–
Calu-3 [3], 1 nM	–	–	100	–	–
Calu-3 [3], 10 nM	–	–	95.5	–	–
Calu-3 [3], 100 nM	–	–	95.2	–	–
Calu-3 [3], 1000 nM	–	–	100	–	–
Calu-3 [3], 10000 nM	–	–	93.9	–	–
HepG2 [4], 1 nM	–	–	119	–	–
HepG2 [4], 10 nM	–	–	114	–	–
HepG2 [4], 100 nM	–	–	108	–	–
HepG2 [4], 1000 nM	–	–	85.2	–	–
HepG2 [4], 10000 nM	–	–	104	–	–
U2OS [5], 1 nM	–	–	99.4	–	–
U2OS [5], 10 nM	–	–	102	–	–
U2OS [5], 100 nM	–	–	99.5	–	–
U2OS [5], 1000 nM	–	–	104	–	–
U2OS [5], 10000 nM	–	–	94.6	–	–
Vero E6 [6], 1 nM	–	–	106	–	–
Vero E6 [6], 10 nM	–	–	88.7	–	–
Vero E6 [6], 100 nM	–	–	104	–	–
Vero E6 [6], 1000 nM	–	–	94.2	–	–
Vero E6 [6], 10000 nM	–	–	104	–	–
[1], 0.3 µM	–	92	–	–	–
[1], 3 µM	–	108	–	–	–
[1], 10 µM	–	113	–	–	–
[1], 30 µM	–	86	–	–	–
[7], 0.3 µM	99	–	–	–	–
[7], 3 µM	83	–	–	–	–
[7], 10 µM	20	–	–	–	–
[7], 30 µM	33	–	–	–	–
[10], 0.3 µM	–	–	–	-0.1	–
[10], 3 µM	–	–	–	0.46	–
[10], 10 µM	–	–	–	0.79	–
[10], 30 µM	–	–	–	0.31	–

drug-induced phospholipidosis [%], A549-ACE2 [9]
Conditions	0.3 µM	0.833333 µM	3.33333 µM	6.66667 µM	10 µM	30 µM
24 h	4.09	5.84	24.5	59.8	64.4	78
48 h	4.99	5.4	17.8	56.9	81	99.5
72 h	6.59	6.94	22.7	60.3	85.3	111

Conditions	drug sensitivity score	relative viability EC50 [µM]
Caco-2 [11]	–	> 10
Caco-2 [15]	0	–
Calu-3 [12]	–	> 10
Calu-3 [16]	0	–
HepG2 [13]	–	> 10
HepG2 [17]	0	–
U2OS [18]	0	–
U2OS [20]	–	> 10
Vero E6 [14]	–	> 10
Vero E6 [19]	0	–
